Data set [1] concerns the target T1, Prostaglandin G/H synthase 1 (Ovis aries) (UniProt P05979).
T1 sequence (whole entry): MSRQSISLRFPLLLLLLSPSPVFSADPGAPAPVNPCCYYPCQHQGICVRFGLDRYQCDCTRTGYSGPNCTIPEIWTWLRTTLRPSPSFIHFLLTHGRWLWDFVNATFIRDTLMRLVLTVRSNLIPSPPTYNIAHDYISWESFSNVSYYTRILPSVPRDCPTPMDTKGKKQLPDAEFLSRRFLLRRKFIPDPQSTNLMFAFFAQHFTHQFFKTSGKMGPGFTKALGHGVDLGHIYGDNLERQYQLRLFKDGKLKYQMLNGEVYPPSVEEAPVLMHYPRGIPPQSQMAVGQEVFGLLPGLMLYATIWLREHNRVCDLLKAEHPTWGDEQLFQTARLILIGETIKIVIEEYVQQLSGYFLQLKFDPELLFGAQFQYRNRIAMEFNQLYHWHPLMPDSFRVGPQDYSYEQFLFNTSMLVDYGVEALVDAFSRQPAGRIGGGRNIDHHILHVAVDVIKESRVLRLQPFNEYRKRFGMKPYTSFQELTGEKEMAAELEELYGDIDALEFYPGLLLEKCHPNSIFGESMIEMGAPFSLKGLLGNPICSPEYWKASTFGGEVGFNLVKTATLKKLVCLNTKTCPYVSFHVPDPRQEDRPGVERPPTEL
Description: In vitro inhibition of Prostaglandin G/H synthase 1 (from ram seminal vesicles) at a concentration of […].

Data set [2] deals with Rattus norvegicus. Description: Evaluated in vivo for antiinflammatory activity at 30 mg/kg oral dose in the carrageenan-induced rat paw edema (male Wistar rat). Type of data set: functional. A general note: Carrageenan injected into the paw causes an acute inflammation.
Data set [3] is described as follows: Pharmacokinetic parameter Tmax was determined in male Wistar rat after 100 mg/kg oral dose of the compound. Set-up: dose 100 mg/kg, route oral. It counts as ADME, organism-based. To be noted: in vivo.
The nature of data set [4]: Partition coefficient (logP). It counts as physicochemical. To be noted: octanol/water.
Data set [5] can be described thus: Pharmacokinetic parameter Cmax was determined in male Wistar rat after 100 mg/kg oral dose of the compound. To be noted: in vivo. It counts as ADME, organism-based. More on the design: dose 100 mg/kg, route oral.
A short description of data set [6]: Pharmacokinetic parameter AUC(area under curve) was determined in male Wistar rat after 100 mg/kg oral dose of the compound. Type of data set: ADME, organism-based. Set-up: dose 100 mg/kg, route oral. To be noted: in vivo.
Data set [7] deals with Rattus norvegicus. Description: Evaluated in vivo for oral dose required to produce antiinflammatory activity in the rat paw edema assay (male Wistar rat). Type of data set: functional.
Data set [8] addresses T2, Prostaglandin G/H synthase 1 (Ovis aries, UniProt P05979).
T2 sequence (P05979 whole entry): T1 sequence (whole entry)
Description: In vitro inhibition against Prostaglandin G/H synthase 1 from ram seminal vesicles

Data set [9] has as its system Rattus norvegicus. As to the kind of experiment: Evaluated in vivo for antiinflammatory activity at 30 mg/kg oral dose in the carrageenan-induced rat paw edema (male Wistar rat); Not active. Type of data set: functional, organism-based. Set-up: dose 30 mg/kg.

The source made the active and inactive calls. The calls are words filed in the database; no cut-off is given here.

As to `CCCC(=O)NS(=O)(=O)c1ccc(-n2nc(C(F)(F)F)cc2-c2ccc(SC)cc2)c(F)c1`, the inhibition (commonly the share of the control response that was lost under treatment) in [1] is 34%. Further, the inhibition in vivo – broadly, the percentage by which the read-out fell short of the control – at 30 mg/kg in data set [2] is 40%.

`CC(=O)NS(=O)(=O)c1ccc(-n2nc(C(F)(F)F)cc2-c2ccc(F)cc2)c(F)c1` had an inhibition in data set [1] of 26%. In addition, in data set [2], at 30 mg/kg the inhibition in vivo was 44%.

`CC(=O)NS(=O)(=O)c1ccc(-n2nc(C(F)(F)F)cc2-c2ccc(C)cc2)cc1`: the inhibition in data set [1] worked out at 10%. Further, the inhibition in vivo at 30 mg/kg in data set [2] was 27%.

`CCC(=O)NS(=O)(=O)c1ccc(-n2nc(C(F)(F)F)cc2-c2ccc(F)cc2)c(F)c1`: the inhibition in data set [1] is 0%. In addition, testing at 30 mg/kg in data set [2] gave an inhibition in vivo of 38%.

Turning to `Cc1ccc(-c2cc(C(F)(F)F)nn2-c2ccc(S(N)(=O)=O)cc2)cc1` [CELECOXIB], the Tmax (in general, the time at which the peak concentration occurs) in data set [3] was 3.25 h. In data set [4], the log partition coefficient (logP) (commonly a log measure of how a compound divides between an organic and an aqueous phase) stood at 3.01. In addition, the concentration in [5] peaked (Cmax) at 2470 ng/mL. In data set [6], the AUC (in general, concentration integrated over time) turned out to be 23200 ng·h/mL. Besides, in [7], the ED50 (in general, the dose that gives a 50% effect, or the effect in half of the subjects) was 7.9 mg/kg. The compound also yielded an inhibition in vivo at 30 mg/kg in data set [2] of 49%.

`CS(=O)(=O)c1ccc(C2=C(c3ccccc3)C(=O)OC2)cc1` [ROFECOXIB]: the Tmax in data set [3] amounted to 3 h. The highest level in data set [5] (Cmax) was 5610 ng/mL. In data set [6], this compound displayed an AUC of 57900 ng·h/mL. Also, the inhibition in vivo at 30 mg/kg in data set [2] was 37%.

Take `COc1ccc(-c2cc(C(F)(F)F)nn2-c2ccc(S(N)(=O)=O)c(F)c2)cc1`: in [7], the ED30 came out at 1 mg/kg and the median effective dose (ED50) was 12.7 mg/kg. The compound further had an inhibition in [1] of 0%. This compound yielded an inhibition in vivo at 30 mg/kg in data set [2] of 52%. The IC50 (commonly the concentration at which inhibition is half-maximal) in data set [8] is greater than 170 µM.

With `COc1ccc2c(c1)c(CC(=O)O)c(C)n2C(=O)c1ccc(Cl)cc1`, the inhibition in [1] came out at 100%.

`CCC(=O)NS(=O)(=O)c1ccc(-n2nc(C(F)(F)F)cc2-c2ccc(SC)cc2)c(F)c1` came in with an inhibition in vivo at 30 mg/kg in [2] of 37%.

`COc1ccc(-c2cc(C(F)(F)F)nn2-c2ccc(S(N)(=O)=O)c(C)c2)cc1` displayed an inhibition in data set [1] of 75%.

The compound `CCCC(=O)[N-]S(=O)(=O)c1ccc(-n2nc(C(F)(F)F)cc2-c2ccc(C)cc2)cc1.[Na+]` gave an ED50 in data set [7] of 6.69 mg/kg. Further, the inhibition in [1] was 2%. In [2], this compound yielded an inhibition in vivo at 30 mg/kg of 63%.

Consider `CCCC(=O)NS(=O)(=O)c1ccc(-n2nc(C(F)(F)F)cc2-c2ccc(OC)cc2)c(F)c1`, for which the inhibition in data set [1] was determined as 32%. The compound also displayed an inhibition in vivo at 30 mg/kg in data set [2] of 42%.

`CCC(=O)[N-]S(=O)(=O)c1ccc(-c2c(-c3ccccc3)noc2C)cc1.[Na+]` [PARECOXIB SODIUM] returned an ED50 in data set [7] of 5 mg/kg.

As to `CCC(=O)[N-]S(=O)(=O)c1ccc(-n2nc(C(F)(F)F)cc2-c2ccc(OC)cc2)c(F)c1.[Na+]`, in [7], the ED50 stood at 6 mg/kg. In data set [1], this compound yielded an inhibition of 18%. This compound also registered an inhibition in vivo at 30 mg/kg in [2] of 78%.

The compound `COc1ccc(-c2cc(C(F)(F)F)nn2-c2ccc(S(=O)(=O)NC(=O)C(C)(C)C)cc2F)cc1` registered an inhibition in data set [1] of 16%. In addition, the inhibition result in data set [9] is “inactive”.

Take `CSc1ccc(-c2cc(C(F)(F)F)nn2-c2ccc(S(N)(=O)=O)cc2F)cc1`: the Tmax in [3] was found to be 1.26 h. In addition, the log partition coefficient (logP) in [4] amounted to 3.81. Besides, in [5], the peak level (Cmax) was 3210 ng/mL. The compound further showed an area under the curve (AUC) in data set [6] of 6650 ng·h/mL. In [1], this compound came in with an inhibition of 29%. In addition, in [2], 30 mg/kg produced 33% inhibition in vivo. Moreover, in data set [8], the IC50 was 24.3 µM.

For the compound `CCCC(=O)NS(=O)(=O)c1ccc(-n2nc(C(F)(F)F)cc2-c2ccc(F)cc2)c(F)c1`, the inhibition in data set [1] was determined as 0%. The same compound had an inhibition in vivo at 30 mg/kg in data set [2] of 22%.

In [1], `CCC(=O)NS(=O)(=O)c1ccc(-n2nc(C(F)(F)F)cc2-c2ccc(C)cc2)cc1` gave an inhibition of 0%. Moreover, in data set [2], testing at 30 mg/kg gave an inhibition in vivo of 30%.

As for `COc1ccc(-c2cc(C(F)(F)F)nn2-c2ccc(S(N)(=O)=O)cc2F)cc1`, the time to peak (Tmax) in [3] came to 7.5 h. The compound also displayed a lipophilicity (logP) in [4] of 3.14. In [5], the concentration peaked (Cmax) at 3300 ng/mL. In data set [6], the AUC is 46400 ng·h/mL. Further, the inhibition in data set [1] worked out at 13%. Further, at 30 mg/kg the inhibition in vivo in data set [2] was 26%. Moreover, the IC50 in data set [8] is greater than 30 µM.

These data come from ChEMBL document CHEMBL1145080, “Synthesis and cyclooxygenase-2 inhibiting property of 1,5-diarylpyrazoles with substituted benzenesulfonamide moiety as pharmacophore: Preparation of sodium salt for injectable formulation” (J Med Chem, 2003).
